Measured values as given in patent publication US5856535A, “Aminosterol ester compounds” (priority 1996, dated 1999).
≈ marks a conversion by molar mass, not a printed value. Entries after “also recorded” stand apart in the source; their conditions may differ. Where two headings read alike, the source gives them in different places.

Legend:
[1] = tested on: human microvascular cells; assay: endothelial cell cord formation assay (human microvascular cells, VEGF and bFGF, collagen matrix); type: cell-based; settings: for minimal effective concentration: Homo sapiens, Endothelial cell; for inhibition of angiogenesis (in words): higher doses
Description: Endothelial cells have the capacity in vitro to form tubular aggregates resembling capillaries in various early stages of formation. This conversion occurs under relatively specific conditions, in which essential growth factors along with an effective substratum are provided. It has been shown that both the interaction of growth factors with the endothelial cell and its attachment to a substratum activate the NHE. The activation of this exchanger is believed to be required for subsequent morphologic transformation of the endothelial cell into a multicellular tubular structure.
To assess the effect of compounds on the cord-like structures formed by human microvascular cells when plated in the presence of VEGF (Vascular Endothelial Growth Factor) and basic fibroblast growth factor on a collagen matrix, a standard cord formation assay was performed using the method described by Goto, et al., "Synergistic Effects of Vascular Endothelial Growth Factor and Basic Fibroblast Growth Factor on the Proliferation and Cord Formation of Bovine Capillary Endothelial Cells Within Collagen Gels," Laboratory Investigation, Vol. 69, No. 5, 1993, pp. 508-517. This article is entirely incorporated herein by reference.

melanoma cells = assay: MTT assay for cell number; type: cell-based; settings: for minimal effective concentration: 48 h, Table II, read-out: Minimum Effective Concentration, MTT assay
Procedure: In Table V, several aminosterol esters show efficacy in killing melanoma cells in the MTT assay.
(§1) The MTT assay for cell number is performed as follows. Cells are counted on a hemocytometer and diluted to a concentration of approx. 10,000 cells/well (55,000 cells/ml×0.18 ml). Cells are then plated in a 96 well microtiter plate and allowed to attach overnight. The next day, compounds are serially diluted from 1000 to 15.6 μg/ml and run in duplicate. 20 μl of each dilution are transferred to the pre-seeded microtiter plates. The final concentrations are 100 to 1.56 μg/ml. The plates are then incubated for 48 hours at 37° C. in 5% CO2. After 48 hours, MTT solution is added. The plate is re-incubated for 4 hours. Readings are done by removing all but 30 μl of media and MTT solution and dissolving the formazan crystals with DMSO. The formazan is dissolved by mixing on a rotating plate at low speed for about 30 minutes. Absorbance of converted dye is measured at a wavelength of 560 nm with background subtraction at 630 nm. The percent survival is determined by a comparison between the mean absorbance of the duplicate test lanes and the growth control.

LLC = LLC MTT; type: cell-based; settings: Lewis lung carcinoma, 48 h; Table II; read-out: Minimum Effective Concentration, LLC MTT
Procedure: as §1

red blood cells = assay: swelling of red blood cells; type: cell-based
E. Coli = assay: antibiotic activity, E. Coli; type: cell-based; settings: Escherichia coli
S. aureus = assay: antibiotic activity, S. aureus; type: cell-based; settings: Staphylococcus aureus
C. albicans = assay: antibiotic activity, C. albicans; type: cell-based; settings: Candida albicans
P. aerug = assay: antibiotic activity, P. aerug; type: cell-based
[2] = inhibition of MSI-1436 binding; settings: 3H-MSI-1436 at 20 μg/mL
HIV = assay: inhibition of HIV replication in vitro (HIV Inhib.); type: cell-based; settings: for inhibition at 0.14 µM: Human immunodeficiency virus 1, read-out: % Inhib of HIV
splenocytes = assay: mitogen proliferation assay (splenocytes of treated mice, Con A); type: in vivo; settings: for Rel. potency to MSI-1436, Mitogen Proliferation Assay: 10 mg/kg iv; for potency in the mitogen proliferation assay (in words): mouse, in vivo
Procedure: For the attached Tables, the mitogen proliferation assay was performed by treating mice (male or female) with various amounts of the aminosterol test compounds. Some time later (typically between 2 hours and 14 days), the mice are sacrificed and their spleens removed. Splenocytes are harvested and cultured in the presence of between 1-10 μg/ml of Con A (Sigma) for 48 hours. See James Morgan, "Monoclonal Antibody Production," Modern Methods in Pharmacology, pp. 29-67, eds., Spector and Back, 1988. This excerpt is entirely incorporated herein by reference. Cell proliferation is monitored either by direct cell counting or by measurement of the incorporation of radioactive thymidine.

in vitro = settings: human, pbmc
[3] = tested on: chick embryo vitelline capillaries; assay: chick embryo vitelline capillary regression assay; type: in vivo; parameters: key to Chick embryo vitelline capillary regression: +: Vascular reactivity; 0: No vascular reactivity; +/-: Equivocal reactivity
Procedure: Using the chick embryo vitelline capillaries assay, various aminosterol compounds were tested for their ability to induce capillary regression. Each compound was applied in 0.1 ml of 15% Ficol 400 and PBS onto the embryo, and vascular regression was assessed after 60 minutes. These tests were conducted by the chorioallantoic membrane anti-angiogenesis assay by applying the material to be assayed to 3 day old fertilized chick embryos in the manner described by Wilks et al., "Inhibition of Angiogenesis With Combination Angiostatic Steroids and Suramin," Radiation Biology, Vol. 60, Nos. 1/2, 1991, pp. 73-77, which article is entirely incorporated herein by reference.
The 3-day chick embryo consists of an embryonic disc from which numerous vessels emerge and return, forming a "figure 8"-shaped structure--the embryo in the center with vascular loops extending outward over both poles. […] Following a lag period of around 15 minutes, the constriction of continuity between capillary and secondary vessels, generally on the "venous" side, was observed. Continued pulsatile blood flow progressed, resulting in a "swelling" of the blind tube, followed by a pinching off of the remaining connection and formation of an enclosed vascular sac resembling a "blood island." This process progressed until only the largest vessels remained intact.

[4] = tested on: Xenopus laevis Stages 59-60 tadpoles; assay: tadpole assay; type: in vivo; settings: for effect on embryonic epithelium / epithelial shedding (in words): 10 μg/ml where stated
[5] = tested on: human ovarian carcinoma, SKOV3; assay: anticancer activity against SKOV3; type: cell-based

Compound `CC(C)CCCC(C)[C@H]1CCC2C3CC[C@H]4C[C@@H](NCCCNCCCCNCCCN)CC[C@]4(C)C3CC[C@@]21C` (stereo partly shown) has a minimal effective concentration ([1]; Table II, read-out: Minimum Effective Concentration, HM Cord Formation) of 10 µg/mL and a minimal effective concentration (melanoma cells) of 3 µg/mL.
With `CC(C)[C@@H](CC[C@@H](C)[C@H]1CC[C@H]2[C@@H]3[C@H](O)C[C@H]4C[C@@H](NCCCNCCCCN)CC[C@]4(C)[C@H]3CC[C@]12C)OS(=O)(=O)O` [drawing 92] the minimal effective concentration (melanoma cells) was 7.8 µg/mL and the minimal effective concentration (LLC) was 13.2 µg/mL.
In the case of `C=C(C)C(=O)CC[C@@H](C)[C@H]1CC[C@H]2[C@@H]3[C@H](O)C[C@H]4C[C@@H](NCCCNCCCCN)CC[C@]4(C)[C@H]3CC[C@]12C` [Compound 1361, reference compound], the “induction of swelling of red blood cells (in words)” value (“induction” for short) (red blood cells) is reported as “induce swelling of red blood cells”.
Compound `CC(CC[C@@H](OS(=O)(=O)O)C(C)C)[C@H]1CCC2C3C(CC[C@@]21C)[C@@]1(C)CC[C@H](NCCCNCCCCNCCCN)C[C@@H]1C[C@H]3O` (stereo partly shown) [drawing 51] has an MIC (E. Coli) of 1 to 2 µg/mL (≈ 1.46 to 2.92 µM), an MIC (S. aureus) of 1 µg/mL (≈ 1.46 µM) and an MIC (C. albicans) of 8 µg/mL (≈ 11.7 µM). It also gave an MIC (P. aerug) of 4 µg/mL (≈ 5.84 µM).
In the case of `COC(=O)CC[C@@H](C)[C@H]1CC[C@H]2[C@@H]3CC[C@@H]4C[C@H](NCCCNCCCCNCCCN)CC[C@]4(C)[C@H]3CC[C@]12C` [Compound 569], the “% Inhib. of MSI-1436 Binding @ 100 μg/mL” value [2] is reported as 78%, the “inhibition of HIV relative to compound 1436 (in words)” value (HIV) is reported as “higher inhibition of HIV than compound 1436” and the inhibition at 0.14 µM (HIV) is reported as 91%. For the same compound, the “Rel. potency to MSI-1436, Mitogen Proliferation Assay” value (splenocytes) was 0.50, the “potency in the mitogen proliferation assay (in words)” value (shortened to “potency … (in words)”) (splenocytes) was “substantial potency” and the cytotoxicity at 14 µM (in vitro) was 9%. For the same compound, the “MTT assay IC50” value (melanoma cells; Tables III-V) was 15 µg/mL and the IC50 (melanoma cells; Tables III-V, read-out: MTT assay IC50) was 14.5 µg/mL (≈ 25.2 µM).
In the case of `COC(=O)CC[C@@H](C)[C@H]1CC[C@H]2[C@@H]3C[C@@H](O)[C@H]4C[C@@H](NCCCNCCCCN)CC[C@]4(C)[C@H]3CC[C@]12C` [Compound 566], the “induction” value (red blood cells) is reported as “induce swelling of red blood cells”.
With `COC(=O)CC[C@@H](C)[C@H]1CC[C@H]2[C@@H]3[C@H](O)C[C@@H]4C[C@@H](NCCCNCCCCNCCCN)CC[C@]4(C)[C@H]3CC[C@]12C` [Compound 411] the “inhibition of angiogenesis (in words)” value [1] was “inhibit angiogenesis at higher doses” and the “Chick embryo vitelline capillary regression” value ([3]; 1 μg applied, 60 minutes) was “+/-”.
For `CC(C)C(CO)(CC[C@@H](C)[C@H]1CC[C@H]2[C@@H]3[C@H](O)C[C@H]4C[C@@H](NCCCNCCCCN)CC[C@]4(C)[C@H]3CC[C@]12C)OS(=O)(=O)O` (stereo partly shown) [Compound 1437], the “time to shedding of larval skin” value ([4]; 10 μg/ml) was ≤ 60 min, the “effect on embryonic epithelium / epithelial shedding (in words)” value [4] was “dramatic effect on the embryonic epithelium covering the tadpole tail; also recorded: larval skin was observed to shed off in a sheet” and the “anticancer activity (in words)” value [5] was “exhibit anticancer activity”.
With `CC(CCC(=O)O)[C@H]1CCC2C3C(CC[C@@]21C)[C@@]1(C)CC[C@H](NCCCNCCCCNCCCN)C[C@@H]1C[C@H]3O` (stereo partly shown) the MIC (E. Coli) was 32 to 64 µg/mL (≈ 55.5 to 111 µM), the MIC (S. aureus) was 16 µg/mL (≈ 27.7 µM) and the MIC (C. albicans) was 32 µg/mL (≈ 55.5 µM). The MIC (P. aerug) was 16 µg/mL (≈ 27.7 µM).
For `CC(CCC(CO)(OS(=O)(=O)O)C(C)C)[C@H]1CCC2C3C(CC[C@@]21C)[C@@]1(C)CC[C@H](NCCCNCCCCN)C[C@@H]1C[C@H]3O` (stereo partly shown) [drawing 52], the MIC (E. Coli) was 4 µg/mL (≈ 6.08 µM), the MIC (S. aureus) was 2 µg/mL (≈ 3.04 µM) and the MIC (C. albicans) was 16 µg/mL (≈ 24.3 µM). The MIC (P. aerug) was 16 µg/mL (≈ 24.3 µM).
For `CC(CC[C@@H](OS(=O)(=O)O)C(C)C)[C@H]1CCC2C3C(CC[C@@]21C)[C@@]1(C)CC[C@H](NCCCNCCCCNCCCN)C[C@@H]1C[C@H]3O` (stereo partly shown) [drawing 93], the minimal effective concentration (melanoma cells) was 6.9 µg/mL and the minimal effective concentration (LLC) was 16.7 µg/mL.
`COC(=O)CCC(C)[C@H]1CCC2C3C(CC[C@@]21C)[C@@]1(C)CC[C@H](NCCCNCCCCN)C[C@H]1C[C@H]3O` (stereo partly shown) gave an MIC (E. Coli) of 256 µg/mL (≈ 480 µM), an MIC (S. aureus) of 64 µg/mL (≈ 120 µM) and an MIC (C. albicans) of 256 µg/mL (≈ 480 µM). For the same compound, the MIC (P. aerug) was > 256 µg/mL.
In the case of `CC(CCC(CO)(OS(=O)(=O)O)C(C)C)[C@H]1CCC2C3C(CC[C@@]21C)[C@@]1(C)CC[C@H](NCCCNCCCCN)C[C@@H]1C[C@H]3O` (stereo partly shown) [drawing 99], the “% Inhib. of MSI-1436 Binding @ 100 μg/mL” value [2] is reported as 14%, the inhibition at 0.14 µM (HIV) is reported as -44% and the “Rel. potency to MSI-1436, Mitogen Proliferation Assay” value (splenocytes) is reported as 1.08. It also gave a cytotoxicity at 14 µM (in vitro) of 0%.
Compound `COC(=O)CCC(C)[C@H]1CCC2C3C(CC[C@@]21C)[C@@]1(C)CC[C@@H](NCCCNCCCCN)C[C@H]1C[C@H]3O` (stereo partly shown) [drawing 38] has an MIC (E. Coli) of 32 to 64 µg/mL (≈ 59.9 to 120 µM), an MIC (S. aureus) of 4 µg/mL (≈ 7.49 µM) and an MIC (C. albicans) of 64 µg/mL (≈ 120 µM). It also gave an MIC (P. aerug) of 64 µg/mL (≈ 120 µM).
With `CC(CCC(=O)O)[C@H]1CCC2C3C(CC[C@@]21C)[C@@]1(C)CC[C@@H](NCCCNCCCCNCCCN)C[C@H]1C[C@H]3O` (stereo partly shown) the MIC (E. Coli) was 8 µg/mL (≈ 13.9 µM) and the MIC (S. aureus) was 64 µg/mL (≈ 111 µM).
In the case of `COC(=O)CC[C@@H](C)[C@H]1CC[C@H]2[C@@H]3C[C@@H](O)[C@H]4C[C@@H](NCCCNCCCCNCCCN)CC[C@]4(C)[C@H]3CC[C@]12C` [Compound 466], the “induction” value (red blood cells) is reported as “induce swelling of red blood cells” and the “potency … (in words)” value (splenocytes) is reported as “substantial potency”.
For `COC(=O)CC[C@@H](C)[C@H]1CC[C@H]2[C@@H]3[C@H](O)C[C@@H]4C[C@H](NCCN)CC[C@]4(C)[C@H]3CC[C@]12C` [Compound 410], the “inhibition of angiogenesis (in words)” value [1] was “inhibit angiogenesis at higher doses”, the “effect on embryonic epithelium / epithelial shedding (in words)” value [4] was “functionally similar to compound 1437” and the “effect on vitelline capillaries (in words)” value ([3]; 3- to 5-day chick embryo) was “substantial activity”.
With `COC(=O)CC[C@@H](C)[C@H]1CC[C@H]2[C@@H]3CC[C@H]4C[C@@H](NCCCNCCCCNCCCN)CC[C@]4(C)[C@H]3CC[C@]12C` [Compound 459] the “induction” value (red blood cells) was “induce swelling of red blood cells” and the “potency … (in words)” value (splenocytes) was “substantial potency”.
In the case of `CO[C@@H]1[C@H](OC(=O)/C=C/C=C/C=C/C=C/C(=O)O)CC[C@]2(CO2)[C@H]1[C@@]1(C)O[C@@H]1CC=C(C)C` [Fumagillin, reference compound], the minimal effective concentration ([1]; text to the table, read-out: concentration at which cord formation is inhibited) is reported as 10 µg/mL.
